Data: ChEMBL document CHEMBL1127077, “Trisubstituted pyridine leukotriene B4 receptor antagonists: synthesis and structure-activity relationships” (J Med Chem, 1993)

Columns and labels:
[1] = target: Leukotriene B4 receptor 1 (Homo sapiens, UniProt Q15722); assay: Binding affinity of [3H]LTB4 to receptors on intact human polymorphonuclear leukocytes
U-937 = assay: Antagonistic activity to inhibit the calcium mobilization response in human U-937 cells; assay type: functional, cell-based

Leukotriene B4 receptor 1, sequence (Q15722 whole entry): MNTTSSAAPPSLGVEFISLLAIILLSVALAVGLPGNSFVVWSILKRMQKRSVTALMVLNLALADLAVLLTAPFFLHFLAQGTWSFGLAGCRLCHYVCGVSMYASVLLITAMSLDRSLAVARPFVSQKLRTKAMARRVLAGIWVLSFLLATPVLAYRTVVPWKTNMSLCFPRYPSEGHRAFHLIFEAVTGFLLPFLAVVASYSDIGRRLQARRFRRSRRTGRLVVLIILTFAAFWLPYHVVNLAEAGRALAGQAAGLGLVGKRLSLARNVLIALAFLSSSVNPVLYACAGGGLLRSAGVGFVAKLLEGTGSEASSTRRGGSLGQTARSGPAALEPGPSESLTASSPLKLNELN

Ki [1] [nM] | IC50 (U-937) [nM] | SMILES
225 | 550 | COc1ccc(CCCCCCCCOc2ccc(C[S+]([O-])c3cccc(CS(=O)(=O)C(F)(F)F)c3)nc2/C=C/C(=O)O)cc1 (configuration not stated)
192 | 290 | COc1ccc(CCCCCCCCOc2ccc(CSc3cccc(OC)c3)nc2/C=C/C(=O)O)cc1
43 | 78 | Nc1cccc(SCc2ccc(OCCCCCCCCc3ccc(C(F)(F)F)cc3)c(/C=C/C(=O)O)n2)c1
4.7 | 74 | COc1ccc(CCCCCCCCOc2ccc(C[S+]([O-])c3cccc(N)c3)nc2/C=C/C(=O)O)cc1 (configuration not stated)
789 | 460 | COc1ccc(CCCCCCCCOc2ccc(CSc3cccc(N(C)C)c3)nc2/C=C/C(=O)O)cc1
609 | 240 | COc1ccc(CCCCCCCCOc2ccc(CSc3cccc(NS(=O)(=O)c4ccccc4)c3)nc2/C=C/C(=O)O)cc1
37 | 280 | COc1ccc(CCCCCCCCOc2ccc(C[S+]([O-])c3ccccc3)nc2/C=C/C(=O)O)cc1 (configuration not stated)
34 | 54 | COc1ccc(CCCCCCCCOc2ccc(CSc3cccc(N)c3)nc2/C=C/C(=O)O)cc1
232 | 300 | COc1ccc(CCCCCCCCOc2ccc(C[S+]([O-])c3cccc(OC)c3)nc2/C=C/C(=O)O)cc1 (configuration not stated)
36 | 150 | COc1ccc(CCCCCCCCOc2ccc(CS(=O)(=O)c3cccc(N)c3)nc2/C=C/C(=O)O)cc1
80 | 390 | COc1ccc(CCCCCCCCOc2ccc(CSc3cccc(C(=O)O)c3)nc2/C=C/C(=O)O)cc1
165 | 4000 | COc1ccc(CCCCCCOc2ccc(CC(O)c3cccc(C(=O)O)c3)nc2/C=C/C(=O)O)cc1 (configuration not stated)
284 | 340 | COc1ccc(CCCCCCCCOc2ccc(CSc3cccc(NS(=O)(=O)C(F)(F)F)c3)nc2/C=C/C(=O)O)cc1
74 | 110 | COc1ccc(CCCCCCCCOc2ccc(CSc3ccccc3)nc2/C=C/C(=O)O)cc1
147 | 150 | COc1ccc(CCCCCCCCOc2ccc(C[S+]([O-])c3cccc(NS(=O)(=O)c4ccccc4)c3)nc2/C=C/C(=O)O)cc1 (configuration not stated)
245 | 820 | COc1ccc(CCCCCCCCOc2ccc(C[S+]([O-])c3cccc(N(C)C)c3)nc2/C=C/C(=O)O)cc1 (configuration not stated)
151 | 1100 | COc1ccc(CCCCCCCCOc2ccc(C[S+]([O-])c3cccc(C(=O)O)c3)nc2/C=C/C(=O)O)cc1 (configuration not stated)
72 | 480 | COc1ccc(CCCCCCCCOc2ccc(CSc3cccc(NC(=O)C(=O)O)c3)nc2/C=C/C(=O)O)cc1

The remaining lines, values behind:

SMILES | Ki [1] [nM] | IC50 (U-937) [nM]
COc1ccc(CCCCCCCCOc2ccc(COc3cccc(C(=O)O)c3)[n+]([O-])c2/C=C/C(=O)O)cc1 | 150 | 890
CCCCCCCCCCCCOc1ccc(C[S+]([O-])c2cccc(C(=O)O)c2)nc1/C=C/C(=O)O (configuration not stated) | 129 | 930
CCCCCCCCCCCCOc1ccc(C[S+]([O-])c2ccc(C(=O)O)cc2)nc1/C=C/C(=O)O (configuration not stated) | 252 | 1300
Nc1cccc([S+]([O-])Cc2ccc(OCCCCCCCCc3ccccc3)c(/C=C/C(=O)O)n2)c1 (configuration not stated) | 11 | 160
Nc1cccc(SCc2ccc(OCCCCCCCCc3ccccc3)c(/C=C/C(=O)O)n2)c1 | 36 | 60
CCCCCCCCCCCCOc1ccc(COc2cccc(C(=O)O)c2)nc1/C=C/C(=O)O | 1130 | 580
CCCCCCCCC(O)/C=C/c1cccc(CC(O)c2cccc(C(=O)O)c2)n1 (configuration not stated) | 1 | 
CCCCCCCCCCCCOc1ccc(COc2cccc(C(=O)O)c2)[n+]([O-])c1/C=C/C(=O)O | 338 | 1010
Nc1cccc([S+]([O-])Cc2ccc(OCCCCCCCCc3ccc(C(F)(F)F)cc3)c(/C=C/C(=O)O)n2)c1 (configuration not stated) | 14 | 54
CCCCCCCCCCOc1ccc(CC(O)c2cccc(C(=O)O)c2)nc1/C=C/C(=O)O (configuration not stated) |  | 3300
CCCCCCCCCCCCOc1ccc(CS(=O)(=O)c2cccc(C(=O)O)c2)nc1/C=C/C(=O)O | 148 | 1060
CCCCCCCCCCOc1ccc(CC(O)c2cccc(C(=O)O)c2)nc1CCC(=O)O (configuration not stated) | 429 | 3400
CCCCCCCCCCCCOc1ccc(C[S+]([O-])c2ccccc2C(=O)O)nc1/C=C/C(=O)O (configuration not stated) | 478 | 1500
Nc1cccc([S+]([O-])Cc2ccc(OCCCCCCCCc3ccc(F)cc3)c(/C=C/C(=O)O)n2)c1 (configuration not stated) | 12 | 110
